{"source": "paper PMC6335420", "about": "“The cell cycle regulator GpsB functions as cytosolic adaptor for multiple cell wall enzymes” (Nature Communications, 2019)", "molecules": {"B1": {"name": "BsPBP1: B. subtilis class A PBP1 (protein)", "chain": "MSDQFNSREARRKANSKSSPSPKKGKKRKKGGLFKKTLFTLLILFVLGVVGGAVTFAVMVSDAPSLDESKLKTPYSSTIYDKNGKEIAEVGAEKRTYVSIDEIPDVVKEAFIATEDARFYEHHGIDPVRIGGALVANFKDGFGAEGGSTITQQVVKNSLLSHQKTLKRKVQEVWLSIQLERNYSKDEILEMYLNRIYFSPRAYGIGKAAEEFFGVTDLSKLTVEQAATLAGMPQSPTAYNPVKNPDKAEKRRNIVLSLMKKQGFISDSQYNKAKKVAVKDEGVVSQKEYEKASTNKYSAFVEEVMKEIDEKSDVDPSADGLKIYTTLDTKAQDKLDELMDGDTVGFTEGMQGGVTLLDTKNGEVRAIGAGRNQPVGGFNYATQTKAQPGSTIKPILDYGPVIENKKWSTYEQIDDSAYTYSNGKPIRDWDRKYLGPISMRYALAQSRNIPALKAFQAVGKDTAVDFANGLGLGLTKDNVTEAYSIGGFGGNDGVSPLTMAGAYSAFGNNGTYNEPHFVKSIEFNDGTKLDLTPKSKSAMSDYTAFMITDMLKTAVKTGTGQLAQVPGVEVAGKTGTTNFDDNEVKRYNIASGGARDSWFVGYTPQYTAAVWTGMGENEAGKKSLSAEEQKVAKRIFAQLIADVDDGSGSFEKPDSVVEATVEKGSNPAKLAGPNTPSDKKLTEYFVKGTAPSTVSKTYEKEEKEETAKLSGLNVKYDKDNQSLTLSWNYDGDATFAVKQSVDGGSYSEIQNSSAKEAVISGVQPGSVYKFEVTAVSDDGKSTASTSYEVPKAEDDEDKKDQQQTDDEKQDDEKTQDDTQTDDSQKDDGQTDQDQTDDSTNDQDKKQDNTNTNPSDNNNQDQSNDNDNDNSNNQDTSDGDSNSGKNDSTGSDTNKNKTDTSNKTQTNSSSIEKTN", "modifications": "left off: His6, end not stated, cleaved", "notes": "B. subtilis class A PBP1"}, "B2": {"name": "SpPBP1a: S. pneumoniae class A PBP1a (protein)", "chain": "MNKPTILRLIKYLSISFLSLVIAAIVLGGGVFFYYVSKAPSLSESKLVATTSSKIYDNKNQLIADLGSERRVNAQANDIPTDLVKAIVSIEDHRFFDHRGIDTIRILGAFLRNLQSNSLQGGSALTQQLIKLTYFSTSTSDQTISRKAQEAWLAIQLEQKATKQEILTYYINKVYMSNGNYGMQTAAQNYYGKDLNNLSLPQLALLAGMPQAPNQYDPYSHPEAAQDRRNLVLSEMKNQGYISAEQYEKAVNTPITDGLQSLKSASNYPAYMDNYLKEVINQVEEETGYNLLTTGMDVYTNVDQEAQKHLWDIYNTDEYVAYPDDELQVASTIVDVSNGKVIAQLGARHQSSNVSFGINQAVETNRDWGSTMKPITDYAPALEYGVYESTATIVHDEPYNYPGTNTPVYNWDRGYFGNITLQYALQQSRNVPAVETLNKVGLNRAKTFLNGLGIDYPSIHYSNAISSNTTESDKKYGASSEKMAAAYAAFANGGTYYKPMYIHKVVFSDGSEKEFSNVGTRAMKETTAYMMTDMMKTVLSYGTGRNAYLAWLPQAGKTGTSNYTDEEIENHIKTSQFVAPDELFAGYTRKYSMAVWTGYSNRLTPLVGNGLTVAAKVYRSMMTYLSEGSNPEDWNIPEGLYRNGEFVFKNGARSTWSSPAPQQPPSTESSSSSSDSSTSQSSSTTPSTNNSTTTNPNNNTQQSNTTPDQQNQNPQPAQP", "modifications": "left off: T25 or T18 fragment of adenylate cyclase (vectors pKT25, pUT18C), N-terminal, kept", "notes": "S. pneumoniae class A PBP1a"}, "B3": {"name": "BsYpbE130-240^Ser132Cys: disulphide cross-linked dimeric form of BsYpbE130-240 (protein, UniProt P50731 130-240, looked up, variant S132C)", "chain": "EDCKPKEQTAADKKQTAVAEKEDSPNKEEATAAAASSSQSTVQQQEQPAEPVQNVPNRVVKHTVQKKETLYRISMKYYKSRTGEEKIRAYNHLNGNDVYTGQVLDIPLMDE", "modifications": "disulphide-linked dimer"}}, "key": {"GpsB": {"test_system": "GpsB", "assay": "Displacement of pre-bound PBP peptides from GpsB", "type": "binding", "settings": "100-fold molar excess of free L-arginine"}, "SpGpsB1-63": {"target": "T1, SpGpsB1-63 (Streptococcus pneumoniae, UniProt Q8DR57)", "T1 construct": "The SpGpsB1-63 expression construct (pET28SpGpsB1-63) was prepared by PCR amplification of gpsB; His6 (N, cleaved yes); made in house; host or cells: E. coli BL21(DE3)", "T1 sequence (Q8DR57 1-63)": "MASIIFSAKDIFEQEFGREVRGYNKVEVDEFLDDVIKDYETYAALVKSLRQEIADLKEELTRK", "assay": "Fluorescence polarisation binding to SpGpsB1-63", "settings": "FP", "description": "(§1) 75 the BsGpsB5-64:BsPBP11-17 complex."}, "SpGpsB1-63Asp33Ala": {"target": "T2, SpGpsB1-63Asp33Ala (Streptococcus pneumoniae, UniProt Q8DR57, D33A)", "T2 construct": "His6 (N, cleaved yes); made in house; host or cells: E. coli BL21(DE3)", "T2 sequence (Q8DR57 1-63 D33A)": "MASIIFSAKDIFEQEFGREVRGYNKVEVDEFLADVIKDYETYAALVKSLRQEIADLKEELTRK", "assay": "Fluorescence polarisation binding to SpGpsB1-63Asp33Ala", "settings": "FP, SpGpsB1-63Asp33Ala relative to wild-type SpGpsB1-63", "description": "as §1"}, "BsGpsB1-68 [1]": {"target": "T3, BsGpsB1-68 (Bacillus subtilis, UniProt P0CI74)", "T3 construct": "His6 (N, cleaved yes); made in house; host or cells: E. coli BL21(DE3)", "T3 sequence (P0CI74 1-68)": "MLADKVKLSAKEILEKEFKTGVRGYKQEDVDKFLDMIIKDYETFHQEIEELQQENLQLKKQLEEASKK", "type": "binding", "settings": "FP", "description": "as §1"}, "BsGpsB1-68 [2]": {"target": "T3, BsGpsB1-68", "settings": "FP, compared with residue-16-labelled peptide; ref 3 (supplement); cited from earlier work"}, "BsYrrS": {"test_system": "BsYrrS", "assay": "BACTH interaction with BsYrrS", "type": "cell-based, Bacillus subtilis", "settings": "E. coli BTH101, nutrient agar, 30 °C"}, "SpGpsB": {"test_system": "SpGpsB", "assay": "BACTH interaction with SpGpsB", "type": "cell-based, Streptococcus pneumoniae", "settings": "E. coli BTH101, 30 °C, 36-40 h", "description": "The target genes were amplified by the PCR from S. pneumoniae D39 chromosomal DNA. PCR fragments for pbp2a, mreC, pbp1a, pbp2x and pbp2b were purified, digested with appropriate restriction enzymes and cloned into the corresponding sites of the pKT25/pUT18C vectors to generate plasmids encoding the corresponding hybrid proteins fused at the C-terminal ends of the T25 and T18 fragments, respectively. Plasmids pKNT25-gpsB/pUT18-gpsB, pKNT25-stkP/pUT18-stkP and pKNT25-ezrA/pUT18-ezrA were already constructed. The mutated and truncated gpsB and pbp2a alleles were amplified from their respective DNA templates and the corresponding PCR products cloned into the corresponding sites of the BACTH vectors as described above for the wild-type alleles. E. coli DH5α transformants were selected on LB agar plates containing ampicillin (100 μg^−1mL^−1) or kanamycin (50 μg^−1mL^−1) and 0.4% glucose to repress leaky expression.\nBACTH experiments, each pair of plasmids was co-transformed into the E. coli cya- strain BTH101 and co-transformation mixtures were spotted onto LB agar plates supplemented with ampicillin ([…]), kanamycin ([…]) and X-Gal (40 μg^−1mL^−1), followed by incubation at 30 °C. Plates were inspected and photographed after 24 and 40 h. Plasmid pairs pKNT25/pUT18 and pKT25-zip/pUT18C-zip were used as negative and positive controls, respectively. […]"}, "[3]": {"assay": "Peptidoglycan pulldown assay", "type": "binding, Bacillus subtilis", "settings": "25 µg protein + 66 µg PG in 100 µL PBS, room temperature 30 min, SDS-PAGE", "method": "PG pulldown assays were carried out in PBS buffer. B. subtilis PG (SigmaAldrich) was prepared as a 10 mg^−1 mL^−1 stock solution in PBS containing 0.02% sodium azide. 25 µg of protein were added to a 100 µL sample containing 66 µg of PG and the mixture incubated with gentle agitation at room temperature for 30 min. The mixture was centrifuged at 16,000 × g for 7 min, the supernatant removed and the pellet resuspended in 1 mL of ice-cold PBS and immediately centrifuged for 2 min at 16,000 × g. The pellet was resuspended in 1 mL of the appropriate buffer and centrifuged for 2 min at 16,000 × g. Finally the pellet was boiled for 3 min in 60 μL SDS-PAGE loading buffer before analysis by SDS-PAGE; the SDS-PAGE loading buffer lacked reducing agents for YpbE130-240^Ser132Cys samples."}}, "note": "Read-outs that look alike come from different tables or passages of the source. Residues, ends and D or L forms follow the SMILES beside them. *: point of attachment. Fluorescein(5-Mal) = O=C1OC2(c3ccc(O)cc3Oc3cc(O)ccc32)c2ccc(N3C(=O)CC(*)C3=O)cc21; X1 = CN(C)c1ccc2c(-c3ccc(N4C(=O)CC(*)C4=O)cc3C(=O)[O-])c3ccc(=[N+](C)C)cc-3oc2c1", "data": [{"molecule": "N=C(N)NCCC[C@H](N)C(=O)O", "note": "[L-arginine]", "values": [{"measurement": "displacement of pre-bound PBP peptides from GpsB", "setting": "GpsB", "result": "does not displace pre-bound PBP peptides from GpsB"}]}, {"molecule": "CC[C@H](C)[C@H](NC(=O)[C@@H]1CCCN1C(=O)[C@H](CSC1CC(=O)N(c2ccc(-c3c4ccc(=[N+](C)C)cc-4oc4cc(N(C)C)ccc34)c(C(=O)[O-])c2)C1=O)NC(=O)[C@@H](NC(=O)[C@H](CCC(N)=O)NC(=O)[C@H](C)NC(=O)[C@H](CC(C)C)NC(=O)[C@H](CCCCN)NC(=O)[C@H](CCCCN)NC(=O)[C@H](CCCNC(=N)N)NC(=O)[C@H](CC(=O)O)NC(=O)[C@H](CO)NC(=O)[C@H](CCCNC(=N)N)NC(=O)[C@H](CO)NC(=O)[C@H](CCCNC(=N)N)NC(=O)[C@H](CCCNC(=N)N)NC(=O)[C@H](CC(C)C)NC(=O)[C@@H](NC(=O)[C@@H](NC(=O)[C@H](CO)NC(=O)[C@H](CC(=O)O)NC(=O)[C@H](CO)NC(=O)[C@H](CC(=O)O)NC(=O)[C@H](CCSC)NC(=O)[C@H](CO)NC(=O)CN)[C@@H](C)O)[C@@H](C)CC)C(C)C)C(=O)O", "note": "(stereo partly drawn) [TAMRA-SpPBP2a23-45] (H-GSMDSDSTILRRSRSDRKKLAQVC(X1)PI-OH)", "values": [{"measurement": "binding to SpGpsB1-63 (in words)", "setting": "SpGpsB1-63", "result": "interacts"}, {"measurement": "reduction in affinity on GpsB mutation", "setting": "SpGpsB1-63Asp33Ala", "result": "~ 40 fold"}]}, {"molecule": "CSCC[C@H](NC(=O)[C@H](CO)NC(=O)CN)C(=O)N[C@@H](C)C(=O)N[C@@H](CC(=O)O)C(=O)N[C@@H](CCC(N)=O)C(=O)N[C@@H](Cc1ccccc1)C(=O)N[C@@H](CC(N)=O)C(=O)N[C@@H](CO)C(=O)N[C@@H](CCCNC(=N)N)C(=O)N[C@@H](CCC(=O)O)C(=O)N[C@@H](C)C(=O)N[C@@H](CCCNC(=N)N)C(=O)N[C@@H](CCCNC(=N)N)C(=O)N[C@@H](CCCCN)C(=O)N[C@@H](C)C(=O)N[C@@H](CC(N)=O)C(=O)N[C@@H](CO)C(=O)N[C@@H](CCCCN)C(=O)N[C@@H](CO)C(=O)N[C@@H](CO)C(=O)N1CCC[C@H]1C(=O)N[C@@H](CO)C(=O)N1CCC[C@H]1C(=O)N[C@@H](CCCCN)C(=O)N[C@@H](CCCCN)C(=O)NCC(=O)N[C@@H](CCCCN)C(=O)N[C@@H](CCCCN)C(=O)N[C@@H](CCCNC(=N)N)C(=O)N[C@@H](CCCCN)C(=O)N[C@@H](CCCCN)C(=O)N[C@@H](CSC1CC(=O)N(c2ccc3c(c2)C(=O)OC32c3ccc(O)cc3Oc3cc(O)ccc32)C1=O)C(=O)NCC(=O)O", "note": "(stereo partly drawn) [Fluorescein-BsPBP11-32] (H-GSMADQFNSREARRKANSKSSPSPKKGKKRKKC(Fluorescein(5-Mal))G-OH; N-terminus and C-terminus assumed)", "values": [{"measurement": "binding to BsGpsB1-68 (in words)", "setting": "BsGpsB1-68 [1]; listed as BsPBP1_1-32 peptide labelled with fluorescein at position 31", "result": "the measured affinity was the same as if the fluorophore was at position 16"}, {"measurement": "binding to BsGpsB1-68 (in words)", "setting": "BsGpsB1-68 [1]; listed as peptide labelled at the C-terminus with fluorescein", "result": "same affinity as a peptide labelled"}, {"measurement": "affinity of residue-31-labelled peptide (in words)", "setting": "BsGpsB1-68 [2]", "result": "same affinity"}]}, {"molecule": "B1", "values": [{"measurement": "BACTH interaction with BsYrrS", "setting": "BsYrrS", "result": "interacted"}]}, {"molecule": "B2", "values": [{"measurement": "BACTH interaction with SpGpsB", "setting": "SpGpsB", "result": "interacted"}]}, {"molecule": "B3", "values": [{"measurement": "binding to peptidoglycan", "setting": "[3]", "result": "enhanced considerably relative to the monomeric, cysteine-free version"}]}]}
